Laboratory results taken from EP0006845A1, “Pharmaceutical composition comprising a 5-aroyl-1-C1-5 alkyl-pyrrole-2-acetic acid compound and acetaminophen or acetylsalicylic acid” (McNeilab, Inc., priority 1978, dated 1980).

Key:
adjuvant arthritic rats [1] = assay: adjuvant arthritis test, evaluation of paw volume of the non-injected hind paw; format: in vivo, female Wistar, Lewis rats; details: for inhibition at 75 mg/kg: Aspirin 75 mg/kg/day alone; for inhibition at 150 mg/kg: Aspirin 150 mg/kg/day alone; for inhibition at 300 mg/kg: Aspirin 300 mg/kg/day alone
From the text: (§1) The efficacy of the novel combination of this invention in inhibiting inflammation and osteogenic degeneration is particularly seen in the adjuvant arthritis test. […] The adjuvant arthritis test, a test in which adjuvant arthritis which results both in inflammation and osteogenic changes is induced by Mycobacterium butvricum and in which the effect of the test compounds on each effect can be Determined, is considered to be .most useful for evaluation of compounds which may be suitable for the treatment of rheumatoid arthritis and other arthritic diseases. The test procedure, in which the effect on inflammation is determined by paw volume changes and the effect on osteogenic changes is determined by microscopic observation, is described by Wong et al, in J. Pharmacol.Exp.Ther. 185, 127-138, 1973, and is employed in the present determination of the potentiation of the antiarthritic properties of 5-aroyl-l-loweralkyl-pyrrole-2-acetic acid derivatives by aspirin or acetaminophen.
(§2) Briefly, in this procedure, adjuvant arthritis is induced in female Wistar, Lewis rats (Charles River Breeding Laboratories. Inc., Wiimington, Mass.) weighing 160-190 gm by a single subcutaneous injection of 0.75 mg Mycobacterium butyricum (Difco) into the left hind paw. The non-injected hind paw remains a normal size for the first seven days. Swelling begins to appear in the non-injected paw of the first rats on Day 8. Using the paw volume determination technique (a technique in which rat paws are dippedin mercury to the hairline and the volume of displacement determined by a modified Van Arman mercury displacement method as described in the aforementioned paper of Wong et al), the time progress curve of volume changes in the non-injected (contralateral) paw is followed. […] The mean onset time for 100 rats is found to be 11.6 days with a standard deviation of 1.9 days and the frequency of onset time values distributed normally between Days 8 and 19. Thus, determinations of antiarthritic activity are made in the period Day 11 to Day 28.
(§3) For determination of anti-inflammatory properties two different evaluations are made: (a) the evaluation of paw volume during the Phase II and Phase III periods and, (b) the evaluation of osteogenic (bone) degenration during the Phase IV period.
For evaluation of paw volume, adjuvant arthritic rats with early but significant signs of arthritis in the contralateral paw are selected on Day 11 and randomly assigned to the various groups of 10 animals in each group. All test -animals are dosed-daily (per os) with the test compound, preferably as sodium salt, or in saline for 17 days (Days 11 to 27 inclusive). Control animals are dosed with an equivalent volume of saline. The paw volumes of the non-injected paws are determined initially on Day 11 and again on Days 15, 18, 22, 25, and 28. The paw volumes are then compared with normal paw volumes of adjuvant arthitic rats previously determined from a reference curve relating normal paw volume to body weight. The volume of each individual rat which is greater than the normal volume is utilized in the analysis of the data. Values for drug treated animals are expressed as a percent inhibition of the paw volume change relative to the mean value for saline controls. Data is evaluated statistically and ED50 values with 95 percent confidence limits are calculated. The method for statistical analysis is described in detail in the aforementioned paper of Wong et al. The term "ED50" refers to the dose of drug required to produce 50 percent antagonism of the paw volume changes observed in the saline treated adjuvant arthritis controls. Suppression of paw volume changes reflects anti-inflammatory and antiarthritic activity of a test drug.

adjuvant arthritic rats [2] = assay: adjuvant arthritis test, evaluation of bone degeneration (osteogenic changes) in the non-injected hind paw; format: in vivo, female Wistar, Lewis rats
From the text: as §1, §2, §3
For evaluation of bone degenerations, normal and adjuvant arthritic rats are sacrificed under C02, after the paw volume measurements have been completed on Day 28. The hind legs are removed above the knees and skinned and the soft tissues dissected away with care to avoid injury to bone and articular structures. The leg bones are then immersed in 2 percent potassium hydroxide solution for approximately four to five days until the remaining soft tissues becomes properly macerated and/or transparent, and the bones are fully visible. The leg bones are stained with Alizarin Red (0.01 percent in 2 percent KOH) for eight hours, and then processed through increasing concentrations of glycerol in water (20, 40, 60, 80 and 100 percent) for purposes of clearing the tissues for microscopic observation. The distal end of the tibiae, the tarsals, metatarsals, phalanges, and sesamoids are evaluated under a Stereozoom Microscope (a special type of dissecting microscope, product of Bausch and Lomb).
Osteogenic changes for each bone (in 31 bone categories) in the non-injected hind paw are graded on a scale of from 0 to 10 (increasing numerical value corresponding to increasing severity of bone degeneration). A total bone degeneration score is obtained (maximum score/paw = 310 points) and then expressed as a percent score. The mean percent score (95 percent confidence limits) for saline control groups from 26 experiments (184 animals) is found to be 53.4 (50.9-55.9). Percent score values for drug treated animals are expressed as a percent inhibition relative to the mean for the saline control group. Data is evaluated statistically and ED50 values with 95 percent confidence limits are calculated.

[3] = Rattus norvegicus, 672 h, Day 28, read-out: Percent Inhibition ± S.E. (Day 28)
[4] = Rattus norvegicus, 672 h, Table VIII, Day 28, read-out: Percent Inhibition ± S.E. (Day 28)

CC(=O)Oc1ccccc1C(=O)O [Aspirin, acetylsalicylic acid]
dose of Aspirin required to suppress the tolmetin ED50 by 50 percent (adjuvant arthritic rats [1]; Aspirin given in combination with tolmetin): 83.6 (60.5 - 101) mg/kg/day | inhibition at 25 mg/kg (adjuvant arthritic rats [1]; Rattus norvegicus, 672 h, Aspirin 25 mg/kg/day alone, Day 28, read-out: Percent Inhibition ± S.E. (Day 28)): 16.4 ± 11.4% | inhibition at 75 mg/kg (adjuvant arthritic rats [1]; [3]): 39.6 ± 3.6% | inhibition at 100 mg/kg (adjuvant arthritic rats [1]; Rattus norvegicus, 672 h, Aspirin 100 mg/kg/day alone, Day 28, read-out: Percent Inhibition ± S.E. (Day 28)): 28.3 ± 8.2% | inhibition at 150 mg/kg (adjuvant arthritic rats [1]; [3]): 34.2 ± 6% | inhibition at 300 mg/kg (adjuvant arthritic rats [1]; [3]): 66.2 ± 6.3% | inhibition at 75 mg/kg (adjuvant arthritic rats [1]; [4]): 4.1 ± 14.4% | inhibition at 150 mg/kg (adjuvant arthritic rats [1]; [4]): 33.2 ± 7.6% | inhibition at 300 mg/kg (adjuvant arthritic rats [1]; [4]): 28.9 ± 9.4% | ED50 (adjuvant arthritic rats [1]; Rattus norvegicus, aspirin alone, data from several similar experiments pooled, read-out: ED50 and its 95 percent C.L.): 322 mg/kg | inhibition at 25 mg/kg (adjuvant arthritic rats [2]; Rattus norvegicus, bone degeneration, Aspirin 25 mg/kg/day alone, read-out: Percent Inhibition ± S. E.): 15.2 ± 12.6% | inhibition at 75 mg/kg (adjuvant arthritic rats [2]; Rattus norvegicus, bone degeneration, Aspirin 75 mg/kg/day alone, read-out: Percent Inhibition ± S. E.): 29.5 ± 5.6% | inhibition at 100 mg/kg (adjuvant arthritic rats [2]; Rattus norvegicus, bone degeneration, Aspirin 100 mg/kg/day alone, read-out: Percent Inhibition ± S. E.): 28.3 ± 8.2% | inhibition at 150 mg/kg (adjuvant arthritic rats [2]; Rattus norvegicus, bone degeneration, Aspirin 150 mg/kg/day alone, read-out: Percent Inhibition ± S. E.): 22.9 ± 3.1% | inhibition at 300 mg/kg (adjuvant arthritic rats [2]; Rattus norvegicus, bone degeneration, Aspirin 300 mg/kg/day alone, read-out: Percent Inhibition ± S. E.): 59.9 ± 5.4% | ED50 (adjuvant arthritic rats [2]; Rattus norvegicus, drug alone, suppression of osteogenic changes, data from several experiments pooled, read-out: ED50 and 95 percent C.L.): 382 mg/kg | Percent Inhibition ± S. E. (adjuvant arthritic rats [2]; bone degeneration, Aspirin 25 mg/kg/day alone): 20.1 ± 5.2%
